# In PMC9544254 (Clinical and Experimental Allergy, 2022):
# How the values were obtained:
# [1] = target: Renin (Homo sapiens, UniProt P00797); test: isolated enzyme kinetic fluorogenic substrate IC50 assay; format: biochemical; conditions: 5 min pre‐incubation
# Protocol: (§3) Protease inhibition was measured by monitoring the rate of fluorescence generation at a fixed substrate concentration over a range of inhibitor concentrations. […] To estimate the IC50, a 4‐parameter logistic dose‐response curve was fitted to the normalized rate of fluorescence increase.
# [2] = target: Tissue plasminogen activator (Homo sapiens, UniProt P00750); test: as above; format: biochemical; conditions: 5 min pre‐incubation
# Protocol: as §3
# [3] = target: Beta‐secretase 1 (Homo sapiens, UniProt P56817); test: as above; format: biochemical; conditions: 5 min pre‐incubation
# Protocol: as §3
# [4] = target: Plasmin (Homo sapiens, UniProt P00747); test: as above; format: biochemical; conditions: 5 min pre‐incubation
# Chain of Plasmin (P00747 581-810 limits assumed): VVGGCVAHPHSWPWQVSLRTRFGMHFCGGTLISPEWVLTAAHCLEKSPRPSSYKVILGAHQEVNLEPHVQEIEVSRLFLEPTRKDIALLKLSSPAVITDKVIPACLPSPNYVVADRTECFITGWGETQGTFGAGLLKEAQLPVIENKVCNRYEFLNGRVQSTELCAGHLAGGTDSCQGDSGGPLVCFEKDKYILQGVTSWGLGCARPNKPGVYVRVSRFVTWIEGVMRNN
# Chain of Plasmin (P00747 97-580 partner limits assumed): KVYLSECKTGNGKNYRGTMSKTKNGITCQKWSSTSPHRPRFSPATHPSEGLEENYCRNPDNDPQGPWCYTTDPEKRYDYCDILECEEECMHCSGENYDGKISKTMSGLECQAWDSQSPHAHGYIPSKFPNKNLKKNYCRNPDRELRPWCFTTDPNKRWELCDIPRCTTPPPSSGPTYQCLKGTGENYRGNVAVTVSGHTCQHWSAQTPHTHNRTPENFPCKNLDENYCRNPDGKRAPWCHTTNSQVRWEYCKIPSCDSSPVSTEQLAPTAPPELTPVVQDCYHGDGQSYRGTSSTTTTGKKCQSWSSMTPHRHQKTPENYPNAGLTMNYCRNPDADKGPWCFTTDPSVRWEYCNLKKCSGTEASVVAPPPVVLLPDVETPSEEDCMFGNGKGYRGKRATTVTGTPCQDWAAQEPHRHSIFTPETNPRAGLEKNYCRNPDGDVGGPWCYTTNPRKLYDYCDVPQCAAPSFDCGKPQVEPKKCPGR
# Protocol: as §3
# [5] = target: Thrombin (Homo sapiens, UniProt P00734); test: as above; format: biochemical; conditions: 5 min pre‐incubation
# Protocol: as §3
# [6] = target: T1, PKa (Homo sapiens, UniProt P03952); test: phase 1: DXS‐stimulated PKa activity in plasma after oral KVD900; format: in vivo; conditions: healthy male volunteers, 600 mg oral powder in capsule, read-out: inhibition of DXS‐stimulated PKa activity compared with pre‐dose
# T1 construct: host or cells: human pooled plasma, stimulated with dextran sulphate
# T1 sequence (P03952 391-638 limits assumed): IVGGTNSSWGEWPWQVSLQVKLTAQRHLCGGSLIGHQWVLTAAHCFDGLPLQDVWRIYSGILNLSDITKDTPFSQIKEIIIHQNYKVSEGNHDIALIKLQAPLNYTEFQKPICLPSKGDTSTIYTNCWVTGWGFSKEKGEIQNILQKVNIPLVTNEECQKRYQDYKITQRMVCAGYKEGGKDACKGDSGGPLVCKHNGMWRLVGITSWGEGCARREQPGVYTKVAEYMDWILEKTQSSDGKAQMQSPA
# T1 sequence (P03952 20-390 partner limits assumed): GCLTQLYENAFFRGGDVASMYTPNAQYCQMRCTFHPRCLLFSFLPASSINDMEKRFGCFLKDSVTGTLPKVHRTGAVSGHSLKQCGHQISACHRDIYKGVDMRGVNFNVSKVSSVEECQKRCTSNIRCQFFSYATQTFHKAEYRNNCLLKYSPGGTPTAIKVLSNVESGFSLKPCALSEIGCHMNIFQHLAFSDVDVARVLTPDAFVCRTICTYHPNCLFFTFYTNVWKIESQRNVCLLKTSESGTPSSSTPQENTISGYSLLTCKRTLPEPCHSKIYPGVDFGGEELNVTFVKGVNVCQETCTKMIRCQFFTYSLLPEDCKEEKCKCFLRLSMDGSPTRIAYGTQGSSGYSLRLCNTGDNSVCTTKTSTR
# Protocol: PKa enzyme activity was measured in human pooled plasma (control plasma, Affinity Biologicals) using H‐D‐Pro‐Phe‐Arg‐AFC. The KKS in plasma was stimulated by the addition of dextran sulphate 500 kDa (DXS; Sigma‐Aldrich). PKa activity in the plasma was estimated based on the maximum rate of fluorescence increase. […] Plasma samples were stimulated with 6.25 or 10 µg/ml DXS and PKa enzyme activity was measured as described above. Percent plasma protein binding (PPB %) was determined using Rapid Equilibrium Dialysis (Pierce RED technology, ThermoFisher Scientific). Compounds were spiked into control plasma (final concentration 5 μM) and dialysed against phosphate buffer (pH 7.4) for 5 h at 37°C. Samples were analysed using liquid chromatography‐tandem mass spectrometry to quantify the fraction of unbound compound.
# (§1) Participants with HAE were within their intercritical period. Blood samples were collected into 3.2% sodium citrate, centrifuged at 1500 g for 10 min at 4°C, and plasma was stored at −80°C until analysis. Additional information on these trials can be found elsewhere (NCT04349800 and NCT04208412, available at https://clinicaltrials.gov).
# [7] = target: T1, PKa; test: phase 2: DXS‐stimulated PKa activity in HAE plasma after oral KVD900; format: in vivo; conditions: HAE subjects (n = 12), 600 mg oral tablets; 45 min post‐dose
# [8] = test system: HK cleavage; test: phase 1: capillary immunoassay of HK and cHK in DXS‐stimulated plasma after oral KVD900; format: in vivo, human; conditions: 600 mg oral
# Protocol: (§2) Undiluted plasma samples obtained at pre‐dose and post‐dose from healthy controls and HAE patients from clinical trials with KVD900, described below, were stimulated with DXS, as described above. Reactions were stopped by rapidly heating samples to 95°C for 10 min in Laemmli buffer containing β‐mercaptoethanol. Components of the KKS in plasma samples (diluted 1:20) were separated by capillary electrophoresis using 12–230 kDa separation modules in the Protein Simple WES^TM system (ProteinSimple). Proteins were detected by immunoassay and quantified from peak areas corresponding to chemiluminescence intensities using Compass for Simple Western software (Version 4.0.0, ProteinSimple) and visualized as virtual blots generated from capillary electropherograms as previously described.[18] Standard curves were generated to estimate protein concentrations in plasma using known quantities of purified HK, plasma prekallikrein (PK), FXII and FXIIa (Enzyme Research Laboratories), spiked into HK (Affinity Biologicals), PK (Affinity Biologicals) and FXII (Technoclone) deficient plasma respectively. Immunodetection was performed using primary antibodies for PK (clone 13G11) (Invitrogen), HK and cHK: KNG17A12 Antibody (Molecular Innovations), FXII and FXIIa: FXII20B2 antibody (Molecular Innovations) and horseradish peroxidase‐conjugated secondary antibody. The anti‐HK light chain antibody used detected HK and two cHK bands. The total cHK was quantified by taking the sum of the peak areas for both cHK bands.
# as §1
# [9] = test system: PKa‐mediated HK cleavage; test: capillary‐based immunoassay of DXS‐stimulated HK cleavage in control plasma; format: biochemical, human; conditions: for DXS‐stimulated generation of cHK: 6.25 µg/ml DXS
# Protocol: as §2
# [10] = target: Cathepsin D (Homo sapiens, UniProt P07339); test: isolated enzyme kinetic fluorogenic substrate IC50 assay; format: biochemical; conditions: 5 min pre‐incubation
# Chain of Cathepsin D (P07339 65-412): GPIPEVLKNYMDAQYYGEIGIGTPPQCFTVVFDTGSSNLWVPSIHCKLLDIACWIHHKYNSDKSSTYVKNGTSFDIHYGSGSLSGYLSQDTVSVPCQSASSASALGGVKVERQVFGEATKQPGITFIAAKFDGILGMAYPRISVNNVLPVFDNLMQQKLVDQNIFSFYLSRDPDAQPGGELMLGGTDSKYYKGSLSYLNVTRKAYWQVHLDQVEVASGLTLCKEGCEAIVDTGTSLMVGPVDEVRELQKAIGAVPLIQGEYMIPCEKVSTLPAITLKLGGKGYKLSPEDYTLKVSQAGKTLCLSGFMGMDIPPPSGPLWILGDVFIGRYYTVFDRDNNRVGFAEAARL
# Protocol: as §3
# [11] = test system: FXII; test: phase 1: capillary immunoassay of FXII and FXIIa in DXS‐stimulated plasma after oral KVD900; format: in vivo, human; conditions: healthy volunteers, 600 mg oral
# Protocol: as §2, §1
# [12] = target: Cathepsin G (Homo sapiens, UniProt P08311); test: isolated enzyme kinetic fluorogenic substrate IC50 assay; format: biochemical; conditions: 5 min pre‐incubation
# Chain of Cathepsin G (P08311 21-255): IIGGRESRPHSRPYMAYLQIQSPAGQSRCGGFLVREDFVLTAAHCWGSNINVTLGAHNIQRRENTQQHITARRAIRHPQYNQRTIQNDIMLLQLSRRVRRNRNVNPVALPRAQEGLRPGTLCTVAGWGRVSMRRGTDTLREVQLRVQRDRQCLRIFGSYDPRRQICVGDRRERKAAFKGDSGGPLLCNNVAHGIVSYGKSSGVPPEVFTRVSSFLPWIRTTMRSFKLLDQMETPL
# Protocol: as §3
# [13] = target: FXa (Homo sapiens, UniProt P00742); test: as above; format: biochemical; conditions: 5 min pre‐incubation
# Chain of FXa (P00742 235-488 limits assumed): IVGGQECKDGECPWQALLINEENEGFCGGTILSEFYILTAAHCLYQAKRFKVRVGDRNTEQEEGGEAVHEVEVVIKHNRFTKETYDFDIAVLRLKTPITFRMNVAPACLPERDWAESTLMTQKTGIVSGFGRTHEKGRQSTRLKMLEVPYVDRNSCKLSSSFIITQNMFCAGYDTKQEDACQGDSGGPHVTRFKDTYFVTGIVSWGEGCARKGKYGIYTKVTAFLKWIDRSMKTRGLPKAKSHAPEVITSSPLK
# Chain of FXa (P00742 41-179 partner limits assumed): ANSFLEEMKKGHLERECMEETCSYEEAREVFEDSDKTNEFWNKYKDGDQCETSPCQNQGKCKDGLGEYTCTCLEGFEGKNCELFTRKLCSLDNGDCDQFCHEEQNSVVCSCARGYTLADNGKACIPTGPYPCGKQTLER
# Protocol: as §3
# [14] = plasma protein binding, Rapid Equilibrium Dialysis; format: in vitro ADME; conditions: human, pH 7.4, control plasma, dialysed 5 h at 37°C, read-out: plasma protein binding (PPB) (converted)
# Protocol: PKa enzyme activity was measured in human pooled plasma (control plasma, Affinity Biologicals) using H‐D‐Pro‐Phe‐Arg‐AFC. The KKS in plasma was stimulated by the addition of dextran sulphate 500 kDa (DXS; Sigma‐Aldrich). PKa activity in the plasma was estimated based on the maximum rate of fluorescence increase. […] Percent plasma protein binding (PPB %) was determined using Rapid Equilibrium Dialysis (Pierce RED technology, ThermoFisher Scientific). Compounds were spiked into control plasma (final concentration 5 μM) and dialysed against phosphate buffer (pH 7.4) for 5 h at 37°C. Samples were analysed using liquid chromatography‐tandem mass spectrometry to quantify the fraction of unbound compound.
# [15] = target: FXIa (Homo sapiens, UniProt P03951); test: isolated enzyme kinetic fluorogenic substrate IC50 assay; format: biochemical; conditions: 5 min pre‐incubation
# Chain of FXIa (P03951 388-625 limits assumed): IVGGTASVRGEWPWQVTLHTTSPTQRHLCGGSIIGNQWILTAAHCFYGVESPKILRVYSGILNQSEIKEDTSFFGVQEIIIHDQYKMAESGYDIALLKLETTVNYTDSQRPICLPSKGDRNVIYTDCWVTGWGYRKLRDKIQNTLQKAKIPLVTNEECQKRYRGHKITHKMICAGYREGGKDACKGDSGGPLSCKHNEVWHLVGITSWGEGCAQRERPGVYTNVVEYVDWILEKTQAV
# Chain of FXIa (P03951 19-387 partner limits assumed): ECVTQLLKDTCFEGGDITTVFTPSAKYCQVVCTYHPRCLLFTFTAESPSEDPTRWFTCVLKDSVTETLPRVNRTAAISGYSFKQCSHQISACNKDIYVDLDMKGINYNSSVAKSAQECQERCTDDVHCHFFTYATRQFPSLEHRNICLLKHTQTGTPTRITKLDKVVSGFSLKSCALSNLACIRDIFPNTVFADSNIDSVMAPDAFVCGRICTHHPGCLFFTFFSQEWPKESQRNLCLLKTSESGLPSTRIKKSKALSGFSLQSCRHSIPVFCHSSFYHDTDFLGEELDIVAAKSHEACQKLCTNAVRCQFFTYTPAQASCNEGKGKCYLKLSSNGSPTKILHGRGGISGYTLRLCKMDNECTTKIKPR
# Protocol: as §3
# [16] = test system: HK cleavage; test: phase 2: DXS‐stimulated HK cleavage assay in HAE plasma after oral KVD900; format: in vivo, human
# Protocol: as §2, §1
# [17] = target: Tissue kallikrein (Homo sapiens, UniProt P06870); test: isolated enzyme kinetic fluorogenic substrate IC50 assay; format: biochemical; conditions: 5 min pre‐incubation
# Chain of Tissue kallikrein (P06870 25-262): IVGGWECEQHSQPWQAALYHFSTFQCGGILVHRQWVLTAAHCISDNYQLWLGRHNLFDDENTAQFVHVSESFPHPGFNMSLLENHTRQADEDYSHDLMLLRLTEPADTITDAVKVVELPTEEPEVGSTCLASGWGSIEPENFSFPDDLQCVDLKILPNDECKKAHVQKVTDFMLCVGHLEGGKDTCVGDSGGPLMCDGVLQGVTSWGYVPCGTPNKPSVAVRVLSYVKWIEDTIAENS
# Protocol: as §3
# [18] = target: Tryptase; test: as above; format: biochemical, human; conditions: 5 min pre‐incubation
# Protocol: as §3
# [19] = target: Trypsin; test: as above; format: biochemical, human; conditions: 5 min pre‐incubation
# Protocol: as §3
# [20] = target: FXIIa (Homo sapiens, UniProt P00748); test: as above; format: biochemical; conditions: 5 min pre‐incubation
# Chain of FXIIa (P00748 373-615 limits assumed): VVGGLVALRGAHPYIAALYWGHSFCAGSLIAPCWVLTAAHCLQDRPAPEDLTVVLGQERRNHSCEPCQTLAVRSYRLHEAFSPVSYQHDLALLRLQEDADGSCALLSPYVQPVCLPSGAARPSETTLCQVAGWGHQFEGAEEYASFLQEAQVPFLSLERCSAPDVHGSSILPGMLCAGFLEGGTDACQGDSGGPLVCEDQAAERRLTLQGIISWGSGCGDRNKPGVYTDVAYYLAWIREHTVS
# Protocol: as §3
# [21] = test system: plasma prekallikrein (PK); test: phase 1: capillary immunoassay of PK in DXS‐stimulated plasma after oral KVD900; format: in vivo, human; conditions: healthy volunteers, 600 mg oral
# Protocol: as §2, §1
# [22] = phase 2: plasma concentrations of KVD900 in HAE subjects; format: in vivo; conditions: both sexes, human, HAE Type 1 and Type 2 subjects, 600 mg oral tablets, arithmetic mean, n = 42
# Protocol: as §1
# [23] = target: FVIIa (Homo sapiens, UniProt P08709); test: isolated enzyme kinetic fluorogenic substrate IC50 assay; format: biochemical; conditions: 5 min pre‐incubation
# Chain of FVIIa (P08709 213-466 limits assumed): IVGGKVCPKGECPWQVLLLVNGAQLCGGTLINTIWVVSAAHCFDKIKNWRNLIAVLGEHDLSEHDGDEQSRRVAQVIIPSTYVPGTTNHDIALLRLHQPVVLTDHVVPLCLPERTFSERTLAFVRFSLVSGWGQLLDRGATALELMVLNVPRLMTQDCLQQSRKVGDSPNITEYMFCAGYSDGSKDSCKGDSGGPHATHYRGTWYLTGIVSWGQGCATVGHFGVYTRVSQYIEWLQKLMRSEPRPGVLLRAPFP
# Chain of FVIIa (P08709 61-212 partner limits assumed): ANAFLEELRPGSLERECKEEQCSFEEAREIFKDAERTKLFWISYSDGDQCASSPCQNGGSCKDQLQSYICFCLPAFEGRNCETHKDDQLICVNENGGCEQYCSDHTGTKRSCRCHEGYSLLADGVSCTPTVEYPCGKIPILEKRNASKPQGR
# Protocol: as §3
# [24] = test system: PKa; set-up: method as in PMID 7692967; conditions: cited from earlier work
# [25] = six HAE patients, 600 mg oral tablets, 15 min through 4 h post‐dose
# Chain of Renin (P00797 67-406): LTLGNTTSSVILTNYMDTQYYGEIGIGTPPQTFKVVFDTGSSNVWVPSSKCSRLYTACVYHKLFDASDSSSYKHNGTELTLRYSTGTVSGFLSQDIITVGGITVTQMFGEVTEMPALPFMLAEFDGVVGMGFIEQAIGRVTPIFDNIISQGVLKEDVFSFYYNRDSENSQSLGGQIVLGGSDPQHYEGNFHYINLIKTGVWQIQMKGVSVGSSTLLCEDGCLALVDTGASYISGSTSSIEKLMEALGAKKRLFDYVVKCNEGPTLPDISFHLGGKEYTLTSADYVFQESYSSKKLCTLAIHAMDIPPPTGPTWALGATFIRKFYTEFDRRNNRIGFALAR
# Chain of Tissue plasminogen activator (P00750 36-562): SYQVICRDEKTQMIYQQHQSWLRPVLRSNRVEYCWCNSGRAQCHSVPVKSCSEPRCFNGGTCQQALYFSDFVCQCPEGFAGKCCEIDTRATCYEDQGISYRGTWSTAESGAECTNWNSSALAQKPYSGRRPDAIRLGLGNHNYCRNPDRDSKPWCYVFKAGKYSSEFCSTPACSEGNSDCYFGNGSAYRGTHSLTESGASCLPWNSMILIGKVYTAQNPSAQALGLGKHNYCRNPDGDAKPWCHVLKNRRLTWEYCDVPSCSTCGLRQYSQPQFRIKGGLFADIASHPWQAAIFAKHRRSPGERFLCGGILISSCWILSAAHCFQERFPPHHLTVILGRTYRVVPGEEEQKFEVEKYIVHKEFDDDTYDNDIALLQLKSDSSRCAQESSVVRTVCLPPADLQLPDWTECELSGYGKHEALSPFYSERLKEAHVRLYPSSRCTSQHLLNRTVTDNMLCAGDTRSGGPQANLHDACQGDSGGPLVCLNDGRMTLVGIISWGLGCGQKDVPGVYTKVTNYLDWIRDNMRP
molecule,measurement,setting,value
COCc1nn(Cc2ccc(Cn3ccccc3=O)cc2)cc1C(=O)NCc1nccc(OC)c1F [KVD900],IC50,[1],> 10 µM
same,IC50,[2],> 10 µM
same,IC50,[3],> 10 µM
same,IC50,[4],> 40 µM
same,IC50,[5],> 40 µM
same,inhibition at 600 mg,[6]; 1 h post‐dose,> 97%
same,inhibition at 600 mg,[6]; 4 h post‐dose,> 97%
same,inhibition at 600 mg,[6]; 6 h post‐dose,> 90%
same,inhibition at 600 mg,[6]; 8 h post‐dose,> 83%
same,inhibition at 600 mg,[7],≥ 95%
same,time for which DXS‐stimulated generation of cHK was not detectable,[8],at least 6 h
same,cHK levels in DXS‐stimulated plasma,"[8]; healthy volunteers, 1, 6 and 8 h post‐dose",not significantly increased compared with pre‐dose without DXS
same,HK remaining after DXS‐stimulation,"[8]; healthy volunteers, 1 to 8 hours post‐dose",> 65%
same,DXS‐stimulated generation of cHK,[9]; 300 nM,fully inhibited
same,DXS‐stimulated generation of cHK,[9]; 1000 nM,fully inhibited
same,IC50,"[9]; control plasma, 15 min pre‐treatment, 6.25 µg/ml DXS on ice 17 min, read-out: IC50, protection of HK from DXS‐stimulated depletion",~0.2 µM
same,IC50,[10],> 10 µM
same,FXII protection in DXS‐stimulated plasma compared with pre‐dose,[11]; 1 and 6 h post‐dose,non‐significant
same,reduction of DXS‐stimulated generation of FXIIa compared with pre‐dose,[11]; 1 h post‐dose,> 90%
same,reduction of DXS‐stimulated generation of FXIIa compared with pre‐dose,[11]; 6 h post‐dose,> 90%
same,reduction of DXS‐stimulated generation of FXIIa compared with pre‐dose,[11]; 8 h post‐dose,> 90%
same,IC50,[12],> 10 µM
same,IC50,[13],> 10 µM
same,"fraction unbound at 5 h, 5 μM",[14],0.23
same,IC50,[15],> 40 µM
same,time post‐dose from which inhibition of HK cleavage (and PKa activity) is observed,[16]; 600 mg oral,15 min
same,cHK levels in DXS‐stimulated plasma,[16]; [25],comparable with unstimulated plasma
same,protection from DXS‐stimulated depletion of HK,[16]; [25],strongly protected
same,IC50,[17],> 10 µM
same,IC50,[18],> 10 µM
same,IC50,[19],> 40 µM
same,IC50,[20],> 40 µM
same,"PK after DXS‐stimulation, % of unstimulated plasma",[21]; 1 h post‐dose,82.7 ± 4.4%
same,"PK after DXS‐stimulation, % of unstimulated plasma",[21]; 6 h post‐dose,87.0± 4.1%
same,DXS‐stimulated decrease in PK,[21]; later time points (≥8 h),comparable to the PK decrease observed in pre‐dose samples
same,Cmax,[22],6570 ng/mL
same,Tmax,[22],1.2 h
same,IC50,[23],> 10 µM
"C1‐INH: serine protease inhibitor (serpin) that covalently binds and inactivates PKa and FXIIa (protein, UniProt P05155 23-500, looked up) Plasma protease C1 inhibitor: NPNATSSSSQDPESLQDRGEGKVATTVISKMLFVEPILEVSSLPTTNSTTNSATKITANTTDEPTTQPTTEPTTQPTIQPTQPTTQLPTDSPTQPTTGSFCPGPVTLCSDLESHSTEAVLGDALVDFSLKLYHAFSAMKKVETNMAFSPFSIASLLTQVLLGAGENTKTNLESILSYPKDFTCVHQALKGFTTKGVTSVSQIFHSPDLAIRDTFVNASRTLYSSSPRVLSNNSDANLELINTWVAKNTNNKISRLLDSLPSDTRLVLLNAIYLSAKWKTTFDPKKTRMEPFHFKNSVIKVPMMNSKKYPVAHFIDQTLKAKVGQLQLSHNLSLVILVPQNLKHRLEDMEQALSPSVFKAIMEKLEMSKFQPTLLTLPRIKVTTSQDMLSIMEKLEFFDFSYDLNLCGLTEDPDLQVSAMQHQTVLELTETGVEAAAASAISVARTLLVFEVQQPFLFVLWDQQHKFPVFMGRVYDPRA",reported Kon for PKa,[24],17000 M⁻¹ s⁻¹
"DX‐2930: PKa inhibitor DX‐2930 (lanadelumab), approved treatment for HAE (antibody, chains of the INN, looked up, V domains shown) VH: EVQLLESGGGLVQPGGSLRLSCAASGFTFSHYIMMWVRQAPGKGLEWVSGIYSSGGITVYADSVKGRFTISRDNSKNTLYLQMNSLRAEDTAVYYCAYRRIGVPRRDEFDIWGQGTMVTVSS VL: DIQMTQSPSTLSASVGDRVTITCRASQSISSWLAWYQQKPGKAPKLLIYKASTLESGVPSRFSGSGSGTEFTLTISSLQPDDFATYYCQQYNTYWTFGQGTKVEIK",reported Kon for PKa,[24],3.4e+06 M⁻¹ s⁻¹
